Values joined by “and” are separate entries in the source; they are usually repeats but may differ in a detail not shown here. Equal values may be shown once.
How the values were obtained:
Assay type in all cases: cell-based, human
[1] = system: PBMC from allergic donors; experiment: Dual ELISPOT, total IL-5 and IFN-γ response (SFC); details: sum of IFNg and IL-5
Description: (§1) Spots were counted by computer-assisted image analysis (Zeiss, KS-ELISPOT reader, Munich, Germany).
(§2) Each assay was performed in triplicate. The level of statistical significance was determined with a Student's t-test using the mean of triplicate values of the response against relevant pools or individual peptides versus the response against the DMSO control.

[2] = system: PBMC from allergic donors; experiment: IFN-γ ELISPOT with extract-stimulated short-term lines; details: positive donor/peptide response
Description: as §1, §2

[3] = system: PBMC from allergic donors; experiment: IL-5 ELISPOT with extract-stimulated short-term lines; details: positive donor/peptide response
Description: as §1, §2

Compound	Response (SFC/10^6) Total ([1]; each table line is one donor)	Response (SFC/10^6) IFNg ([2]; each table line is one donor)	Response (SFC/10^6) IL-5 ([3]; each table line is one donor)	Response (SFC/10^6) Total ([1]; one donor per table line)	Response (SFC/10^6) IFNg ([2]; one donor per table line)	Response (SFC/10^6) IL-5 ([3]; one donor per table line)
C[C@H](NC(=O)[C@@H](NC(=O)[C@H](C)NC(=O)[C@H](C)NC(=O)[C@H](C)NC(=O)[C@@H]1CCCN1C(=O)[C@@H](NC(=O)[C@H](C)NC(=O)[C@@H](NC(=O)[C@H](C)NC(=O)[C@H](Cc1ccc(O)cc1)NC(=O)[C@H](C)NC(=O)[C@H](C)NC(=O)[C@H](C)NC(=O)[C@@H]1CCCN1)[C@@H](C)O)[C@@H](C)O)[C@@H](C)O)C(=O)O [3324.1184]	58 SFC/10^6 and 1637 SFC/10^6	58 SFC/10^6	1637 SFC/10^6	–	–	–
CC[C@H](C)[C@H](NC(=O)[C@H](Cc1ccccc1)NC(=O)[C@H](C)NC(=O)[C@@H](N)CC(=O)O)C(=O)N[C@@H](C)C(=O)N[C@@H](C)C(=O)N[C@@H](CC(C)C)C(=O)N[C@H](C(=O)N[C@@H](CCC(=O)O)C(=O)N[C@@H](C)C(=O)N[C@@H](CC(C)C)C(=O)N[C@@H](CCCNC(=N)N)C(=O)N[C@H](C(=O)N[C@H](C(=O)N[C@@H](C)C(=O)O)[C@@H](C)CC)C(C)C)[C@@H](C)O [3324.1432]	713 SFC/10^6 and 540 SFC/10^6	713 SFC/10^6	540 SFC/10^6	–	–	–
CC[C@H](C)[C@H](NC(=O)[C@H](Cc1ccccc1)NC(=O)[C@H](CCCCN)NC(=O)[C@H](Cc1ccc(O)cc1)NC(=O)[C@@H](NC(=O)[C@H](CCC(=O)O)NC(=O)[C@H](Cc1ccc(O)cc1)NC(=O)[C@H](C)NC(=O)CN)[C@@H](C)O)C(=O)N1CCC[C@H]1C(=O)N[C@@H](CO)C(=O)N[C@@H](CC(C)C)C(=O)N[C@@H](CCC(=O)O)C(=O)N[C@@H](C)C(=O)N[C@@H](C)C(=O)O [3324.1433]	247 SFC/10^6 and 208 SFC/10^6 and 153 SFC/10^6	208 SFC/10^6 and 153 SFC/10^6	247 SFC/10^6	–	–	–
CC[C@H](C)[C@H](NC(=O)[C@H](C)NC(=O)[C@H](CCCCN)NC(=O)[C@H](CC(N)=O)NC(=O)[C@H](Cc1ccccc1)NC(=O)[C@H](C)NC(=O)CNC(=O)[C@H](CCC(=O)O)NC(=O)[C@H](Cc1ccccc1)NC(=O)[C@@H](NC(=O)[C@@H](NC(=O)[C@H](Cc1ccccc1)NC(=O)[C@H](CCCCN)NC(=O)[C@H](CC(=O)O)NC(=O)[C@@H](N)CC(N)=O)[C@@H](C)O)C(C)C)C(=O)O [3324.1442]	400 SFC/10^6 and 93 SFC/10^6	93 SFC/10^6	400 SFC/10^6	–	–	–
CC(C)[C@H](NC(=O)[C@H](Cc1ccccc1)NC(=O)[C@H](CO)NC(=O)[C@H](CC(=O)O)NC(=O)[C@H](Cc1ccccc1)NC(=O)[C@H](CCCCN)NC(=O)[C@H](C)NC(=O)[C@H](CCC(=O)O)NC(=O)[C@@H]1CCCN1C(=O)[C@@H](NC(=O)[C@H](C)N)[C@@H](C)O)C(=O)N[C@@H](C)C(=O)N[C@@H](C)C(=O)N[C@@H](Cc1ccccc1)C(=O)N[C@H](C(=O)O)[C@@H](C)O [3324.1570]	238 SFC/10^6 and 80 SFC/10^6 and 117 SFC/10^6	80 SFC/10^6 and 117 SFC/10^6	238 SFC/10^6	–	–	–
CC[C@H](C)[C@H](NC(=O)[C@@H](N)CC(=O)O)C(=O)N[C@@H](CC(N)=O)C(=O)N[C@H](C(=O)NCC(=O)N[C@@H](Cc1ccccc1)C(=O)N[C@@H](CCCCN)C(=O)N[C@@H](C)C(=O)N[C@@H](C)C(=O)N[C@H](C(=O)N[C@@H](C)C(=O)N[C@@H](C)C(=O)N[C@@H](C)C(=O)N[C@@H](C)C(=O)NCC(=O)O)C(C)C)C(C)C [3324.1571]	397 SFC/10^6 and 47 SFC/10^6 and 1057 SFC/10^6 and 1183 SFC/10^6	47 SFC/10^6 and 1183 SFC/10^6	397 SFC/10^6 and 1057 SFC/10^6	–	–	–
CC(C)[C@H](NC(=O)[C@H](C)NC(=O)[C@H](C)NC(=O)[C@H](CCCCN)NC(=O)[C@@H](N)Cc1ccccc1)C(=O)N[C@@H](C)C(=O)N[C@@H](C)C(=O)N[C@@H](C)C(=O)N[C@@H](C)C(=O)NCC(=O)N[C@@H](C)C(=O)N1CCC[C@H]1C(=O)N1CCC[C@H]1C(=O)N[C@@H](C)C(=O)N[C@@H](CC(=O)O)C(=O)O [3324.1575]	138 SFC/10^6 and 327 SFC/10^6 and 230 SFC/10^6	230 SFC/10^6	138 SFC/10^6 and 327 SFC/10^6	–	–	–
CC[C@H](C)[C@H](NC(=O)[C@H](CC(=O)O)NC(=O)[C@H](CCC(=O)O)NC(=O)[C@H](CCSC)NC(=O)[C@H](CC(C)C)NC(=O)[C@H](CCCCN)NC(=O)[C@@H](N)CCC(N)=O)C(=O)N[C@@H](CC(N)=O)C(=O)N[C@H](C(=O)NCC(=O)N[C@@H](Cc1ccccc1)C(=O)N[C@@H](CCCCN)C(=O)N[C@@H](C)C(=O)N[C@@H](C)C(=O)N[C@H](C(=O)O)C(C)C)C(C)C [3324.1580]	317 SFC/10^6 and 390 SFC/10^6	317 SFC/10^6 and 283 SFC/10^6	107 SFC/10^6	–	–	–
CC(C)C[C@H](NC(=O)[C@H](Cc1ccc(O)cc1)NC(=O)[C@H](C)NC(=O)[C@H](CCC(=O)O)NC(=O)[C@@H](NC(=O)[C@H](C)NC(=O)[C@H](CCCCN)NC(=O)[C@H](Cc1ccccc1)NC(=O)[C@@H](NC(=O)[C@H](CCC(=O)O)NC(=O)[C@H](CO)NC(=O)[C@H](C)N)C(C)C)C(C)C)C(=O)N[C@H](C(=O)N[C@@H](C)C(=O)N[C@@H](Cc1c[nH]cn1)C(=O)O)C(C)C [3324.1584]	–	–	–	207 SFC/10^6 and 1033 SFC/10^6 and 97 SFC/10^6	143 SFC/10^6	207 SFC/10^6 and 890 SFC/10^6 and 97 SFC/10^6
CC(C)C[C@H](NC(=O)[C@H](CC(N)=O)NC(=O)[C@H](CC(=O)O)NC(=O)[C@H](CO)NC(=O)[C@H](CC(=O)O)NC(=O)[C@H](CC(C)C)NC(=O)[C@@H](NC(=O)[C@H](Cc1ccccc1)NC(=O)[C@H](C)NC(=O)[C@H](CCCCN)NC(=O)[C@H](Cc1ccccc1)NC(=O)[C@H](CC(C)C)NC(=O)[C@H](CCCNC(=N)N)NC(=O)[C@H](C)NC(=O)[C@@H]1CCCN1)C(C)C)C(=O)O [3324.1585]	–	–	–	170 SFC/10^6 and 2767 SFC/10^6 and 1790 SFC/10^6 and 583 SFC/10^6 and 700 SFC/10^6 and 70 SFC/10^6	1877 SFC/10^6 and 393 SFC/10^6 and 180 SFC/10^6	170 SFC/10^6 and 890 SFC/10^6 and 1790 SFC/10^6 and 190 SFC/10^6 and 520 SFC/10^6 and 70 SFC/10^6
CC[C@H](C)[C@H](NC(=O)[C@@H](NC(=O)[C@H](CO)NC(=O)[C@H](C)N)C(C)C)C(=O)N1CCC[C@H]1C(=O)N1CCC[C@H]1C(=O)N[C@@H](C)C(=O)N[C@@H](CCCNC(=N)N)C(=O)N[C@@H](CC(C)C)C(=O)N[C@@H](Cc1ccccc1)C(=O)N[C@@H](CCCCN)C(=O)N[C@@H](C)C(=O)N[C@@H](Cc1ccccc1)C(=O)N[C@H](C(=O)N[C@@H](CC(C)C)C(=O)O)C(C)C [3324.1587]	–	–	–	273 SFC/10^6 and 330 SFC/10^6 and 97 SFC/10^6 and 100 SFC/10^6	273 SFC/10^6 and 127 SFC/10^6	203 SFC/10^6 and 97 SFC/10^6 and 100 SFC/10^6
CC[C@H](C)[C@H](NC(=O)[C@H](CC(C)C)NC(=O)[C@H](CC(N)=O)NC(=O)[C@H](CC(=O)O)NC(=O)[C@H](CO)NC(=O)[C@H](CC(=O)O)NC(=O)[C@H](CC(C)C)NC(=O)[C@@H](NC(=O)[C@H](Cc1ccccc1)NC(=O)[C@H](C)NC(=O)[C@@H](N)CCCCN)C(C)C)C(=O)N1CCC[C@H]1C(=O)N[C@@H](CCCCN)C(=O)N[C@H](C(=O)N[C@H](C(=O)O)C(C)C)C(C)C [3324.1588]	–	–	–	123 SFC/10^6 and 1147 SFC/10^6 and 57 SFC/10^6	200 SFC/10^6	123 SFC/10^6 and 947 SFC/10^6 and 57 SFC/10^6
CC[C@H](C)[C@H](NC(=O)[C@H](Cc1ccc(O)cc1)NC(=O)[C@H](CCC(=O)O)NC(=O)[C@H](CC(C)C)NC(=O)[C@H](CO)NC(=O)[C@@H](NC(=O)[C@@H](N)Cc1ccccc1)[C@@H](C)O)C(=O)N[C@@H](CCC(=O)O)C(=O)N[C@@H](C)C(=O)N[C@@H](C)C(=O)N[C@@H](CCCCN)C(=O)N[C@@H](Cc1c[nH]c2ccccc12)C(=O)N[C@@H](CC(C)C)C(=O)N[C@@H](CC(C)C)C(=O)N1CCC[C@H]1C(=O)O [3324.1589]	1743 SFC/10^6 and 203 SFC/10^6	310 SFC/10^6	1433 SFC/10^6 and 203 SFC/10^6	–	–	–
CC[C@H](C)[C@H](NC(=O)[C@H](Cc1ccccc1)NC(=O)[C@H](CC(=O)O)NC(=O)[C@@H](NC(=O)[C@@H](NC(=O)CNC(=O)[C@@H](N)CCC(=O)O)[C@@H](C)O)C(C)C)C(=O)N[C@@H](Cc1ccccc1)C(=O)NCC(=O)N[C@@H](CCC(=O)O)C(=O)N[C@@H](C)C(=O)N[C@@H](CCCNC(=N)N)C(=O)N[C@@H](CO)C(=O)N[C@@H](CC(C)C)C(=O)N[C@@H](Cc1ccc(O)cc1)C(=O)O [3324.1590]	1697 SFC/10^6 and 363 SFC/10^6	397 SFC/10^6	1300 SFC/10^6 and 363 SFC/10^6	–	–	–
CC[C@H](C)[C@H](N)C(=O)N[C@@H](C)C(=O)N[C@@H](Cc1ccccc1)C(=O)N[C@@H](Cc1ccccc1)C(=O)N[C@@H](CCCNC(=N)N)C(=O)N[C@@H](CCCCN)C(=O)N[C@@H](CCC(=O)O)C(=O)N1CCC[C@H]1C(=O)N[C@@H](CC(C)C)C(=O)N[C@@H](CCCCN)C(=O)N[C@@H](CCC(=O)O)C(=O)N[C@@H](CS)C(=O)NCC(=O)NCC(=O)N[C@H](C(=O)O)[C@@H](C)CC [3337.0029]	–	–	–	257 SFC/10^6	77 SFC/10^6	180 SFC/10^6
